US9365540B2, “Benzimidazole derivatives as MCH receptor antagonists” (Takeda Pharmaceutical Company Limited, priority 2012, dated 2016)
Counter-ions that a name gives are not always drawn.

Legend:
human MCHR1 = target: T1, human MCHR1 (Homo sapiens, UniProt Q99705); assay: MCH receptor 1 antagonistic activity, Ca2+ mobilization assay; format: cell-based; settings: CHO, test compound 0.1 μM; human MCHR1-expressing CHO cells (clone #4); ligand MCH(4-19) 2 nM; read-out: Inhibitory rate % (0.1 μM)
T1 construct: expressed in transfected cells; host or cells: CHO dhfr- cells, clone #4
T1 sequence (Q99705 whole entry): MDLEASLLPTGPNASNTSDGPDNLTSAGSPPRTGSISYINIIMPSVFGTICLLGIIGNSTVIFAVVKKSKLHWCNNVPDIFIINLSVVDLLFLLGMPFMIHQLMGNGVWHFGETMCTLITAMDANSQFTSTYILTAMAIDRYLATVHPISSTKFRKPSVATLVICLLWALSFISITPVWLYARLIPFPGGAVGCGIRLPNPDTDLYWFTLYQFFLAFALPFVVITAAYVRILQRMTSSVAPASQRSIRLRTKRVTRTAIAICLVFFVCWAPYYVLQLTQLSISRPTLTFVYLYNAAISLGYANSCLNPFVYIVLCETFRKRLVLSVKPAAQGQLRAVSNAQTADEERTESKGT
Procedure, shortened: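 CHO dhfr− cells stably expressing human MCHR1 (clone #4) were used in a fluorometric Ca2+ mobilization assay. Test compounds were run at 0.1 μM, with antagonism expressed as percent inhibition.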

[1] = target: T2, human MCH receptor 1 (MCHR1) (Homo sapiens, UniProt Q99705); assay: human MCH receptor 1 (MCHR1) competitive binding assay with [125I]-MCH(4-19); settings: test compound 0.1 μM, human MCHR1-expressing CHO cell membrane fraction, read-out: Binding inhibition rate % (0.1 μM)
T2 construct: expressed in transfected cells; host or cells: CHO cell clone 57 (membrane fraction)
T2 sequence (Q99705 whole entry): as above
Procedure, shortened: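 Percent binding inhibition by 0.1 μM test compound, corrected for nonspecific binding defined with unlabeled MCH(1-19), is read by scintillation after filtration onto PEI-treated GF/C filters. The reaction runs 1 hr at room temperature with [125I]-MCH(4-19) and human MCHR1-CHO cell membranes in Tris-HCl pH 7.5 buffer containing EDTA and protease inhibitors.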

[2] = test system: male diet-induced obese F344/Jcl rats; assay: Anorectic effect in male diet-induced obese F344/Jcl rats; format: in vivo, rat; settings: 5 mg/mL suspension at 2 mL/kg, two administrations, food intake for 2 days vs control group; for inhibition in vivo at 5000 µg/mL, 10 mg/kg: Rattus norvegicus, po, 48 h, read-out: Food intake suppression rate (%)
Method: Evaluation of Anorectic Effect Using Male Diet-Induced Obese F344/Jcl Rats
Male diet-induced obese F344/Jcl rats (44-50 weeks old) fed with a high-fat diet (D12451: Research Diets) from 5 weeks old were used. From before the start of experiment, the rats were singly housed, given a powder high-fat diet (D12451M: Research Diets), and habituated to oral administration with tap water. The food intake from the evening of the day before the start of experiment to the next morning was measured, and the rats were grouped based on both the food intake and the body weight of the previous day. In the evening of the day of the start of experiment and the next day, 0.5% methylcellulose solution was orally administered to the control group, and 0.5% methylcellulose suspension (5 mg/mL) of the test compound was orally administered to the compound administration group at 2 mL/kg (6 per group for both control group and compound administration group). The food intake for 2 days from the initial administration was measured. The food intake inhibition rate of each compound administration group to the control group was calculated.

SMILES	inhibition at 0.1 µM (human MCHR1)	inhibition at 0.1 µM [1]	inhibition in vivo at 5000 µg/mL, 10 mg/kg [2]	Food intake suppression rate (%) ([2]; oral, hydrochloride)
Cn1c(C2CC2)nc2ccc(-n3ccc(OCc4ccccc4)cc3=O)cc21 [Example 9, 4-(Benzyloxy)-1-(2-cyclopropyl-1-methyl-1H-benzimidazol-6-yl)pyridin-2(1H)-one]	100%	72%	14.8%	
Cn1c(C2CC2)nc2ccc(-n3ccc(OCc4ccc(Cl)cc4)cc3=O)cc21 [Example 10, 4-((4-Chlorobenzyl)oxy)-1-(2-cyclopropyl-1-methyl-1H-benzimidazol-6-yl)pyridin-2(1H)-one]	99%	89%	58.1%	
Cn1c(CC2CC2)nc2ccc(-n3ccc(OCc4ccc(F)cc4)cc3=O)cc21 [Example 15, 1-(2-(Cyclopropylmethyl)-1-methyl-1H-benzimidazol-6-yl)-4-((4-fluorobenzyl)oxy)pyridin-2(1H)-one]	90%	53%	45.4%	
CCc1nc2ccc(-n3ccc(OCc4ccc(Cl)s4)cc3=O)cc2n1C [Example 49, 4-[(5-Chlorothiophen-2-yl)methoxy]-1-(2-ethyl-1-methyl-1H-benzimidazol-6-yl)pyridin-2(1H)-one]			29.3%	
CCc1nc2ccc(-n3ccc(OCc4csc(Cl)c4)cc3=O)cc2n1C [Example 51, 4-[(5-Chlorothiophen-3-yl)methoxy]-1-(2-ethyl-1-methyl-1H-benzimidazol-6-yl)pyridin-2(1H)-one]			50%	
Cn1c(C2CC2)nc2ccc(-n3ccc(OCc4ccc(Cl)c(F)c4)cc3=O)cc21 [Example 131, 4-((4-Chloro-3-fluorobenzyl)oxy)-1-(2-cyclopropyl-1-methyl-1H-benzimidazol-6-yl)pyridin-2(1H)-one]		78%	44.3%	
Cc1c(C2CC2)nc2ccc(-n3ccc(OCc4ccc(C(F)(F)F)s4)cc3=O)cn12 [Example 158, 1-(2-Cyclopropyl-3-methylimidazo[1,2-a]pyridin-6-yl)-4-((5-(trifluoromethyl)thiophen-2-yl)methoxy)pyridin-2(1H)-one]	105%	83%	20.3%	
Cc1c(C2CC2)nc2ccc(-n3ccc(OCc4ccc(C(F)(F)F)s4)cc3=O)cn12 [Example 160, 1-(2-Cyclopropyl-3-methylimidazo[1,2-a]pyridin-6-yl)-4-((5-(trifluoromethyl)thiophen-2-yl)methoxy)pyridin-2(1H)-one hydrochloride]				22.7%
Cn1c(C2CC2)nc2ccc(-n3ccc(OCc4ccc(C(F)(F)F)s4)cc3=O)cc21 [Example 242, 1-(2-Cyclopropyl-1-methyl-1H-benzimidazol-6-yl)-4-((5-(trifluoromethyl)-2-thienyl)methoxy)pyridin-2(1H)-one hydrochloride]			17.4%	
Cn1c(C2CC2)nc2ccc(-n3ccc(OCc4csc(C(F)(F)F)c4)cc3=O)cc21 [Example 252, 1-(2-Cyclopropyl-1-methyl-1H-benzimidazol-6-yl)-4-((5-(trifluoromethyl)-3-thienyl)methoxy)pyridin-2(1H)-one]	85%	66%	30.8%	
Cn1c(C2CC2)nc2ccc(-n3ccc(OCc4csc(C(F)(F)F)n4)cc3=O)cc21 [Example 266, 1-(2-Cyclopropyl-1-methyl-1H-benzimidazol-6-yl)-4-((2-(trifluoromethyl)-1,3-thiazol-4-yl)methoxy)pyridin-2(1H)-one]	73%	50%	20%	
Cn1c(C2CC2)nc2ccc(-n3ccc(OCc4cc(C(F)(F)F)cs4)cc3=O)cc21 [Example 275, 1-(2-Cyclopropyl-1-methyl-1H-benzimidazol-6-yl)-4-((4-(trifluoromethyl)-2-thienyl)methoxy)pyridin-2(1H)-one]	89%	75%	50.1%	
CCc1nc2ccc(-n3ccc(OCc4cc(C(F)(F)F)cs4)cc3=O)cc2n1C [Example 276, 1-(2-Ethyl-1-methyl-1H-benzimidazol-6-yl)-4-((4-(trifluoromethyl)-2-thienyl)methoxy)pyridin-2(1H)-one]	97%	71%	57.9%	
Cn1c(C2CC2)nc2ccc(-n3ccc(OCc4nc(C5CC5)cs4)cc3=O)cc21 [Example 277, 1-(2-Cyclopropyl-1-methyl-1H-benzimidazol-6-yl)-4-((4-cyclopropyl-1,3-thiazol-2-yl)methoxy)pyridin-2(1H)-one]	77%	55%		
Cn1c(C2CC2)nc2ccc(-n3ccc(OCc4nc(C(F)F)cs4)cc3=O)cc21 [Example 283, 1-(2-Cyclopropyl-1-methyl-1H-benzimidazol-6-yl)-4-((4-(difluoromethyl)-1,3-thiazol-2-yl)methoxy)pyridin-2(1H)-one]	99%	56%		
CCc1nc2ccc(-n3ccc(OCc4nc(C(F)F)cs4)cc3=O)cc2n1C [Example 284, 4-((4-(Difluoromethyl)-1,3-thiazol-2-yl)methoxy)-1-(2-ethyl-1-methyl-1H-benzimidazol-6-yl)pyridin-2(1H)-one]	83%	37%		
Cn1c(C2CC2)nc2ccc(-n3ccc(OCc4csc(C5CC5)n4)cc3=O)cc21 [Example 285, 1-(2-Cyclopropyl-1-methyl-1H-benzimidazol-6-yl)-4-((2-cyclopropyl-1,3-thiazol-4-yl)methoxy)pyridin-2(1H)-one]	58%	36%		
Cc1nc2ccc(-n3ccc(OCc4cc(C(F)(F)F)cs4)cc3=O)cc2n1C [Example 286, 1-(1,2-Dimethyl-1H-benzimidazol-6-yl)-4-((4-(trifluoromethyl)thiophen-2-yl)methoxy)pyridin-2(1H)-one]	100%	58%		
Cn1c(C2CC2)nc2ccc(-n3ccc(OCc4csc(C(F)F)n4)cc3=O)cc21 [Example 287, 1-(2-Cyclopropyl-1-methyl-1H-benzimidazol-6-yl)-4-((2-(difluoromethyl)-1,3-thiazol-4-yl)methoxy)pyridin-2(^1H)-one]	95%	47%		
CCc1nc2ccc(-n3ccc(OCc4csc(C(F)F)n4)cc3=O)cc2n1C [Example 288, 4-((2-(Difluoromethyl)-1,3-thiazol-4-yl)methoxy)-1-(2-ethyl-1-methyl-1H-benzimidazol-6-yl)pyridin-2(1H)-one]	87%	40%		
Cc1nc2ccc(-n3ccc(OCc4ccccc4)cc3=O)cc2n1C [Example 289, 4-(Benzyloxy)-1-(1,2-dimethyl-1H-benzimidazol-6-yl)pyridin-2(1H)-one]	100%	48%		
Cc1nc2ccc(-n3ccc(OCc4csc(C(F)(F)F)c4)cc3=O)cc2n1C [Example 290, 1-(1,2-Dimethyl-1H-benzimidazol-6-yl)-4-((5-(trifluoromethyl)thiophen-3-yl)methoxy)pyridin-2(1H)-one]	90%	77%	43.5%	
Cc1c(C2CC2)nc2ccc(-n3ccc(OCc4ccc(F)cn4)cc3=O)cn12 [Example 291, 1-(2-Cyclopropyl-3-methylimidazo[1,2-a]pyridin-6-yl)-4-((5-fluoropyridin-2-yl)methoxy)pyridin-2(1H)-one hydrochloride]	98%	47%		
